Measurements as given in patent US10787446B2 (GENENTECH, INC., priority 2015, dated 2020).

Target: T1, hNav1.7 and the β1 subunit (Homo sapiens, UniProt Q15858)
T1 construct: expressed in transfected cells
Experiment: Tritiated compound competitive binding to membranes from cells heterologously expressing hNav1.7 and the β1 subunit (LBA)
Conditions: competition with 100 pM [3H]compound, 18 h, room temperature; IC50 by 4 parameter logistic model
Method in brief: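 Membranes were incubated 18 h at room temperature with 100 pM [3H]-labelled NaV1.7 inhibitor and increasing test compound in 100 mM NaCl, 20 mM Tris HCl, pH 7.4. Bound radioligand was filtered on PEI-soaked GF/C, washed, and counted by scintillation. IC50 from a 4-parameter logistic fit of % inhibition.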

T1 sequence (Q15858 whole entry): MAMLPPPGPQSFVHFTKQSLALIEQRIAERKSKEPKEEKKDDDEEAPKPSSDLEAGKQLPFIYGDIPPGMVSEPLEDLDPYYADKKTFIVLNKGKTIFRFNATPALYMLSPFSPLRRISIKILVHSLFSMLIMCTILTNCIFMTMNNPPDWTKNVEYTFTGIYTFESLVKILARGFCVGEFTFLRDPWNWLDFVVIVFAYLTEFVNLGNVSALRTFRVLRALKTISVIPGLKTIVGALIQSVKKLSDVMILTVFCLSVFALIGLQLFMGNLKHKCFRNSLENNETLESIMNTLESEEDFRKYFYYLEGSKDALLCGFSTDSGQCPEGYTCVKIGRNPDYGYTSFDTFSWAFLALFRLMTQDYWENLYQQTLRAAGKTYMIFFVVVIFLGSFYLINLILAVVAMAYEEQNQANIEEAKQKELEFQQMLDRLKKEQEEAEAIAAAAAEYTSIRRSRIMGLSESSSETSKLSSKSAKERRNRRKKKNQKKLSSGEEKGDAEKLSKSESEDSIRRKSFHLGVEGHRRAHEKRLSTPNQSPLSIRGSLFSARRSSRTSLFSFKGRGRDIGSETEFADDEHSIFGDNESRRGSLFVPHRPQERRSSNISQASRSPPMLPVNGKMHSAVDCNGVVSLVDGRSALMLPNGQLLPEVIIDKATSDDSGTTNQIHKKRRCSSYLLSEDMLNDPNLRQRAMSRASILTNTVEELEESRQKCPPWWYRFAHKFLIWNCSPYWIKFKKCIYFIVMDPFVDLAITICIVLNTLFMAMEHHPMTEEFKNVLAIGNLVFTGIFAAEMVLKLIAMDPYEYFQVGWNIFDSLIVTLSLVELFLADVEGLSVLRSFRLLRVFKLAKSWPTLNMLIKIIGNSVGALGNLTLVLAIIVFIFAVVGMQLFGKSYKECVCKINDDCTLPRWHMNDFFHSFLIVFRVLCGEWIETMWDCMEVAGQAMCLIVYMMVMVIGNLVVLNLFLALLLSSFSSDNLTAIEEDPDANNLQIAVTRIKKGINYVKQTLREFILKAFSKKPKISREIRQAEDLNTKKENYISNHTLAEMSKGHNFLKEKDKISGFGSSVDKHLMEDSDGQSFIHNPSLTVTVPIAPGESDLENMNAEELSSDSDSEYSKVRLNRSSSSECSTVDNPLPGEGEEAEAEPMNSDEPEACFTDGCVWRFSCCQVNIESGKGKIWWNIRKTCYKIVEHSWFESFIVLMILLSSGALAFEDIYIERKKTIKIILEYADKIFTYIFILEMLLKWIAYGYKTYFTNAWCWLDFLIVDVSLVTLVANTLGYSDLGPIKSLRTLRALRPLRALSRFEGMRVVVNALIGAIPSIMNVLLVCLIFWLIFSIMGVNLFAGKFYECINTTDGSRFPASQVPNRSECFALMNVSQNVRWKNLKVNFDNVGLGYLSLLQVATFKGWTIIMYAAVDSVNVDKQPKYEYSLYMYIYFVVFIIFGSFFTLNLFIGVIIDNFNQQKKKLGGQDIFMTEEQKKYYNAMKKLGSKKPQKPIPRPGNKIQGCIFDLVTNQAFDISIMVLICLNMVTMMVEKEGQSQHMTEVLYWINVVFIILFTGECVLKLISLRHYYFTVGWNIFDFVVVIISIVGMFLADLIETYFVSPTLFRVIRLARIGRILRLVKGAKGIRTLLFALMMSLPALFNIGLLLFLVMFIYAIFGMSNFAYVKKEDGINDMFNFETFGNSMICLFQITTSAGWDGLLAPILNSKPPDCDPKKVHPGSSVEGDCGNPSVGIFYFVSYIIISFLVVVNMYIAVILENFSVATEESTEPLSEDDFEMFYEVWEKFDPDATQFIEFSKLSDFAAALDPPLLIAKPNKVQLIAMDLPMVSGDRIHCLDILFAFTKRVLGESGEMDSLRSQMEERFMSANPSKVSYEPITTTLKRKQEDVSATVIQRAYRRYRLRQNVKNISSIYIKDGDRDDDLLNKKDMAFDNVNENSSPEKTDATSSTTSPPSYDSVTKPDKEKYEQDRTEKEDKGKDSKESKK
T1 sequence (Q07699 19-218 partner): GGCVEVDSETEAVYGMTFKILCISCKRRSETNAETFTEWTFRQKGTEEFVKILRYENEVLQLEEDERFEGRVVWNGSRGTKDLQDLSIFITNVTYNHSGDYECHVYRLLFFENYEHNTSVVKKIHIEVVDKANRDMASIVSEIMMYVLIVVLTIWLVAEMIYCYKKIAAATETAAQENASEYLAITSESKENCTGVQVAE

Row | Compound | Nav1.7 (LBA) [µM]
1 | CS(=O)(=O)[C@@H]1CCN([C@@H]2CCOc3cc(S(=O)(=O)Nc4ncns4)ccc32)[C@H](c2ccc(F)cc2)C1 [Example 162, (R)-4-((2S,4R)-2-(4-fluorophenyl)-4-(methylsulfonyl)piperidin-1-yl)-N-(1,2,4-thiadiazol-5-yl)chroman-7-sulfonamide] | 3
2 | CS(=O)(=O)[C@H]1CCN([C@H]2CCOc3cc(S(=O)(=O)Nc4ncns4)ccc32)[C@@H](c2ccc(F)cc2)C1 [Example 163, (S)-4-((2R,4S)-2-(4-fluorophenyl)-4-(methylsulfonyl)piperidin-1-yl)-N-(1,2,4-thiadiazol-5-yl)chroman-7-sulfonamide] | 0.0223
3 | CS(=O)(=O)[C@H]1CCN([C@@H]2CCOc3cc(S(=O)(=O)Nc4ncns4)ccc32)[C@@H](c2ccc(F)cc2)C1 [Example 164, (R)-4-((2R,4S)-2-(4-fluorophenyl)-4-(methylsulfonyl)piperidin-1-yl)-N-(1,2,4-thiadiazol-5-yl)chroman-7-sulfonamide] | 0.208
4 | CS(=O)(=O)[C@@H]1CCN([C@@H]2CCOc3cc(S(=O)(=O)Nc4nccs4)c(F)cc32)[C@H](c2ccc(F)cc2)C1 [Example 165, (R)-6-fluoro-4-((2S,4R)-2-(4-fluorophenyl)-4-(methylsulfonyl)piperidin-1-yl)-N-(thiazol-2-yl)chroman-7-sulfonamide] | 1.01
5 | CS(=O)(=O)[C@@H]1CCN([C@H]2CCOc3cc(S(=O)(=O)Nc4nccs4)c(F)cc32)[C@H](c2ccc(F)cc2)C1 [Example 166, (S)-6-fluoro-4-((2S,4R)-2-(4-fluorophenyl)-4-(methylsulfonyl)piperidin-1-yl)-N-(thiazol-2-yl)chroman-7-sulfonamide] | 0.00212
6 | O=S(=O)(Nc1ncns1)c1ccc2c(c1)OCC[C@H]2N1CC[C@@](O)(C(F)(F)F)C[C@H]1c1ccc(F)cc1 [Example 167, (R)-4-((2S,4S)-2-(4-fluorophenyl)-4-hydroxy-4-(trifluoromethyl)piperidin-1-yl)-N-(1,2,4-thiadiazol-5-yl)chroman-7-sulfonamide] | 3
7 | O=S(=O)(Nc1ncns1)c1ccc2c(c1)OCC[C@@H]2N1CC[C@@](O)(C(F)(F)F)C[C@H]1c1ccc(F)cc1 [Example 168, (S)-4-((2S,4S)-2-(4-fluorophenyl)-4-hydroxy-4-(trifluoromethyl)piperidin-1-yl)-N-(1,2,4-thiadiazol-5-yl)chroman-7-sulfonamide] | 0.000878
8 | O=S(=O)(Nc1ncns1)c1ccc2c(c1)OCC[C@@H]2N1CC[C@](O)(C(F)(F)F)C[C@@H]1c1ccc(F)cc1 [Example 169, (S)-4-((2R,4R)-2-(4-fluorophenyl)-4-hydroxy-4-(trifluoromethyl)piperidin-1-yl)-N-(1,2,4-thiadiazol-5-yl)chroman-7-sulfonamide] | 0.0682
9 | O=S(=O)(Nc1ncns1)c1ccc2c(c1)OCC[C@H]2N1CC[C@](O)(C(F)(F)F)C[C@@H]1c1ccc(F)cc1 [Example 170, (R)-4-((2R,4R)-2-(4-fluorophenyl)-4-hydroxy-4-(trifluoromethyl)piperidin-1-yl)-N-(1,2,4-thiadiazol-5-yl)chroman-7-sulfonamide] | 0.175
10 | O=S(=O)(Nc1ncns1)c1cc2c(cc1F)[C@H](N1CC[C@@](O)(C(F)(F)F)C[C@H]1c1ccc(F)cc1)CCO2 [Example 171, (R)-6-fluoro-4-((2S,4S)-2-(4-fluorophenyl)-4-hydroxy-4-(trifluoromethyl)piperidin-1-yl)-N-(1,2,4-thiadiazol-5-yl)chroman-7-sulfonamide] | 2.028
11 | O=S(=O)(Nc1ncns1)c1ccc2c(c1)OCC[C@H]2N1CC[C@@H](OC(F)(F)F)C[C@H]1c1ccc(F)cc1 [Example 173, (R)-4-((2S,4R)-2-(4-fluorophenyl)-4-(trifluoromethoxy)piperidin-1-yl)-N-(1,2,4-thiadiazol-5-yl)chroman-7-sulfonamide] | 0.000895
12 | O=S(=O)(Nc1ncns1)c1ccc2c(c1)OCC[C@@H]2N1CC[C@@H](OC(F)(F)F)C[C@H]1c1ccc(F)cc1 [Example 174, (S)-4-((2S,4R)-2-(4-fluorophenyl)-4-(trifluoromethoxy)piperidin-1-yl)-N-(1,2,4-thiadiazol-5-yl)chroman-7-sulfonamide] | 0.235
13 | O=S(=O)(Nc1ncns1)c1ccc2c(c1)OCC[C@@H]2N1CC[C@H](OC(F)(F)F)C[C@@H]1c1ccc(F)cc1 [Example 175, (S)-4-((2R,4S)-2-(4-fluorophenyl)-4-(trifluoromethoxy)piperidin-1-yl)-N-(1,2,4-thiadiazol-5-yl)chroman-7-sulfonamide] | 0.00305
14 | O=S(=O)(Nc1ncns1)c1ccc2c(c1)OCC[C@H]2N1CC[C@H](OC(F)(F)F)C[C@@H]1c1ccc(F)cc1 [Example 176, (R)-4-((2R,4S)-2-(4-fluorophenyl)-4-(trifluoromethoxy)piperidin-1-yl)-N-(1,2,4-thiadiazol-5-yl)chroman-7-sulfonamide] | 0.0248

Continued, values first:

Row | Nav1.7 (LBA) [µM] | Compound
15 | 0.00584 | N#C[C@@H]1CCN([C@H]2CCOc3cc(S(=O)(=O)Nc4ncns4)ccc32)[C@H](c2ccc(F)cc2)C1 [Example 177, (S)-4-((2S,4R)-4-cyano-2-(4-fluorophenyl)piperidin-1-yl)-N-(1,2,4-thiadiazol-5-yl)chroman-7-sulfonamide]
16 | 1.02 | N#C[C@@H]1CCN([C@@H]2CCOc3cc(S(=O)(=O)Nc4ncns4)ccc32)[C@H](c2ccc(F)cc2)C1 [Example 178, (R)-4-((2S,4R)-4-cyano-2-(4-fluorophenyl)piperidin-1-yl)-N-(1,2,4-thiadiazol-5-yl)chroman-7-sulfonamide]
17 | 0.0109 | N#C[C@H]1CCN([C@H]2CCOc3cc(S(=O)(=O)Nc4ncns4)ccc32)[C@@H](c2ccc(F)cc2)C1 [Example 179, (S)-4-((2R,4S)-4-cyano-2-(4-fluorophenyl)piperidin-1-yl)-N-(1,2,4-thiadiazol-5-yl)chroman-7-sulfonamide]
18 | 0.158 | N#C[C@H]1CCN([C@@H]2CCOc3cc(S(=O)(=O)Nc4ncns4)ccc32)[C@@H](c2ccc(F)cc2)C1 [Example 180, (R)-4-((2R,4S)-4-cyano-2-(4-fluorophenyl)piperidin-1-yl)-N-(1,2,4-thiadiazol-5-yl)chroman-7-sulfonamide]
19 | 0.735 | O=S(=O)(Nc1ncns1)c1ccc2c(c1)OCC[C@H]2N1CC[C@@H](CF)C[C@H]1c1ccc(F)cc1 [Example 181, (R)-4-((2S,4R)-4-(fluoromethyl)-2-(4-fluorophenyl)piperidin-1-yl)-N-(1,2,4-thiadiazol-5-yl)chroman-7-sulfonamide]
20 | 0.00399 | O=S(=O)(Nc1ncns1)c1ccc2c(c1)OCC[C@@H]2N1CC[C@@H](CF)C[C@H]1c1ccc(F)cc1 [Example 182, (S)-4-((2S,4R)-4-(fluoromethyl)-2-(4-fluorophenyl)piperidin-1-yl)-N-(1,2,4-thiadiazol-5-yl)chroman-7-sulfonamide]
21 | 0.00652 | O=S(=O)(Nc1ncns1)c1ccc2c(c1)OCC[C@@H]2N1CC[C@H](CF)C[C@@H]1c1ccc(F)cc1 [Example 183, (S)-4-((2R,4S)-4-(fluoromethyl)-2-(4-fluorophenyl)piperidin-1-yl)-N-(1,2,4-thiadiazol-5-yl)chroman-7-sulfonamide]
22 | 0.132 | O=S(=O)(Nc1ncns1)c1ccc2c(c1)OCC[C@H]2N1CC[C@H](CF)C[C@@H]1c1ccc(F)cc1 [Example 184, (R)-4-((2R,4S)-4-(fluoromethyl)-2-(4-fluorophenyl)piperidin-1-yl)-N-(1,2,4-thiadiazol-5-yl)chroman-7-sulfonamide]
23 | 2.18 | O=S(=O)(Nc1ncns1)c1ccc2c(c1)OCC[C@H]2N1CC[C@@H](C(F)F)C[C@H]1c1ccc(F)cc1 [Example 185, (R)-4-((2S,4R)-4-(difluoromethyl)-2-(4-fluorophenyl)piperidin-1-yl)-N-(1,2,4-thiadiazol-5-yl)chroman-7-sulfonamide]
24 | 0.00214 | O=S(=O)(Nc1ncns1)c1ccc2c(c1)OCC[C@@H]2N1CC[C@@H](C(F)F)C[C@H]1c1ccc(F)cc1 [Example 186, (S)-4-((2S,4R)-4-(difluoromethyl)-2-(4-fluorophenyl)piperidin-1-yl)-N-(1,2,4-thiadiazol-5-yl)chroman-7-sulfonamide]
25 | 0.00255 | O=S(=O)(Nc1ncns1)c1ccc2c(c1)OCC[C@@H]2N1CC[C@H](C(F)F)C[C@@H]1c1ccc(F)cc1 [Example 187, (S)-4-((2R,4S)-4-(difluoromethyl)-2-(4-fluorophenyl)piperidin-1-yl)-N-(1,2,4-thiadiazol-5-yl)chroman-7-sulfonamide]
26 | 0.131 | O=S(=O)(Nc1ncns1)c1ccc2c(c1)OCC[C@H]2N1CC[C@H](C(F)F)C[C@@H]1c1ccc(F)cc1 [Example 188, (R)-4-((2R,4S)-4-(difluoromethyl)-2-(4-fluorophenyl)piperidin-1-yl)-N-(1,2,4-thiadiazol-5-yl)chroman-7-sulfonamide]
27 | 0.0448 | O=S(=O)(Nc1nccs1)c1cc2c(cc1F)[C@H](N1CC[C@@H](C(F)(F)F)C[C@H]1c1ccccn1)CCO2 [Example 190, (R)-6-fluoro-4-((2S,4R)-2-(pyridin-2-yl)-4-(trifluoromethyl)piperidin-1-yl)-N-(thiazol-2-yl)chroman-7-sulfonamide]
28 | 0.176 | O=S(=O)(Nc1ncns1)c1ccc2c(c1)OCC[C@H]2N1CC[C@@H](C(F)(F)F)C[C@H]1c1ccccn1 [Example 191, (R)-4-((2S,4R)-2-(pyridin-2-yl)-4-(trifluoromethyl)piperidin-1-yl)-N-(1,2,4-thiadiazol-5-yl)chroman-7-sulfonamide]
29 | 0.0103 | O=S(=O)(Nc1nccs1)c1cc2c(cc1F)[C@H](N1CC[C@@H](C(F)(F)F)C[C@H]1c1cccnc1)CCO2 [Example 193, (R)-6-fluoro-4-((2S,4R)-2-(pyridin-3-yl)-4-(trifluoromethyl)piperidin-1-yl)-N-(thiazol-2-yl)chroman-7-sulfonamide]
